Patent US7709014B2, “Hydroxy-oligocarboxylic esters: effects on nerve and use for cutaneous and mucocutaneous organs or sites” (priority 2005, dated 2010)
Counter-ions that a name gives are not always drawn.

Assays:
nerves of the lips = experiment: Topical application of ester ointment or cream on the lips of human subjects: sensual, sensational, plumping or numbing feelings; format: in vivo; details: for duration of the feelings of the lips / sensual, sensational or plumping feelings of the lips / time after application until the lips experienced the feelings: 10% in water-non-washable ointment, human; for feelings of the lips: cream or ointment containing 10%, topically applied to lips (general description)
From the text: The mucocutaneous organs or sites include lips, mouth, gum, nostrils, nipples, vulva, vagina, penis and anus.
Ethyl glycolate 10 g was mixed with 90 g ointment prepared from white petrolatum 50 parts, mineral oil 40 parts and white beeswax 10 parts. The composition thus prepared contained 10% ethyl glycolate in a hydrophobic ointment that was not washable with water (a water-non-washable ointment).
A subject, topically applied the above 10% ethyl glycolate ointment on their lips.
L-Ethyl lactate 10 g was mixed with 90 g ointment prepared from white petrolatum 50 parts, mineral oil 40 parts and white beeswax 10 parts. The composition thus prepared contained 10% L-ethyl lactate in water-non-washable ointment. A subject, topically applied the above 10% L-ethyl lactate ointment on their lips.
DL-Diethyl malate 10 g was mixed with 90 g ointment prepared from white petrolatum 50 parts, mineral oil 40 parts and white beeswax 10 parts. The composition thus prepared contained 10% DL-diethyl malate in a water-non-washable ointment.
A subject, topically applied the above 10% DL-diethyl malate ointment on their lips.
D-Diethyl tartarate 10 g was mixed with 90 g ointment prepared from white petrolatum 50 parts, mineral oil 40 parts and white beeswax 10 parts. The composition thus prepared contained 10% D-diethyl tartarate in a water-non-washable ointment.
A subject, topically applied the above 10% D-diethyl tartarate ointment on their lips.
L-Diethyl tartarate 10 g was mixed with 90 g ointment prepared from white petrolatum 50 parts, mineral oil 40 parts and white beeswax 10 parts. The composition thus prepared contained 10% L-diethyl tartarate in a water-non-washable ointment. A subject, topically applied the above 10% L-diethyl tartarate ointment on their lips.
Trimethyl citrate 10 g was mixed with 90 g ointment prepared from white petrolatum 50 parts, mineral oil 40 parts and white beeswax 10 parts. The composition thus prepared contained 10% trimethyl citrate in a water-non-washable ointment.
A subject, topically applied the above 10% trimethyl citrate ointment on their lips.
Lidocaine 5 g was dissolved in warm propylene glycol 20 ml, and the solution thus obtained was mixed with 75 g ointment prepared from white petrolatum 50 parts, mineral oil 40 parts and white beeswax 10 parts. The composition thus prepared contained 5% lidocaine in a water-non-washable ointment.
A subject, topically applied the above 5% lidocaine ointment on their lips.
Tripropyl citrate 10 g was mixed with 90 g ointment prepared from white petrolatum 50 parts, mineral oil 40 parts and white beeswax 10 parts. The composition thus prepared contained 10% tripropyl citrate in a water-non-washable ointment.
A subject, topically applied the above 10% tripropyl citrate ointment on their lips.
Tri-isopropyl citrate 10 g was mixed with 90 g ointment prepared from white petrolatum 50 parts, mineral oil 40 parts and white beeswax 10 parts. The composition thus prepared contained 10% tri-isopropyl citrate in a water-non-washable ointment.
A subject, topically applied the above 10% tri-isopropyl citrate ointment on their lips.

[1] = test system: mucocutaneous organs or sites; experiment: Topical application to mucocutaneous organs or sites: general findings on sensuous, sensational and mild anesthetic effects; format: in vivo, human; details: for sensuous or mild anesthetic effect: topical application, same conditions as the hydroxy-oligocarboxylic esters
From the text: The present invention is based on the discovery that topical application of a hydroxy-oligocarboxylic ester, preferably a hydroxydicarboxylic ester or more preferably a hydroxytricarboxylic ester such as tripropyl citrate on topical application can produce sensuous, sensational and mild anesthetic effects on mucocutaneous organs or sites, such as lips, mouth, gum, nostrils, nipples, vulva, vagina, penis and anus. […] The sensuous and sensational effects produced by the hydroxy-oligocarboxylic ester, preferably a hydroxydicarboxylic ester or more preferably a hydroxytricarboxylic ester are quite different from the numbing effects induced by local anesthetics such as lidocaine and procaine. The sensuous, sensational and mild anesthetic effects produced by the hydroxy-oligocarboxylic ester according to the present invention generally last from a few minutes to a few hours. Such nerve-acting sensation or effect has many cosmetic, dental and dermatological applications. For example, a lipstick or lip balm comprising a hydroxy-oligocarboxylic ester, preferably a hydroxydicarboxylic ester or more preferably a hydroxytricarboxylic ester, can provide a sensuous or sensational feeling after topical application to lips of a human subject. Such sensuous action and certain anesthetic effects on nervous system produced by the hydroxy-oligocarboxylic ester can have beneficial applications such as to relieve itch or pain of lips, mouth, gum, nostrils, nipples, vulva, vagina, penis and anus, and for conditions associated with eczema, hemorrhoids, dry or aging-associated changes of the vulva and vagina.

[2] = test system: itchy and eczematous skin (atopic eczema); experiment: Topical application on itching, eczematous skin of a human subject: relief of itch; format: in vivo; details: for effect on itch associated with eczema or psoriasis / time after topical application until the itch disappears: cream or ointment containing 10%, topically applied to eczematous or psoriatic lesions (general description)
Method: A composition comprising a hydroxy-oligocarboxylic ester, preferably a hydroxydicarboxylic ester, and more preferably a hydroxytricarboxylic ester, can also be topically applied to mucocutaneous or skin lesions. For example, a cream or ointment containing 10% tripropyl citrate or tri-isopropyl citrate can be topically applied to eczematous or psoriatic lesions twice daily for 4 to 16 weeks.
Tripropyl citrate 10 g and propylene glycol 20 ml were mixed with hydrophilic ointment or oil-in-water emulsion 70 g. The composition thus prepared contained 10% tripropyl citrate in water-soluble oil-in-water emulsion.
A subject, having atopic eczema with severe itching skin, topically applied the above 10% tripropyl citrate cream on their right leg with itchy eczematous lesions. […]

[3] = test system: itchy and eczematous skin (atopic eczema); experiment: as above; format: in vivo; details: 10% in water-non-washable ointment, itching skin of right lower leg, subject with atopic eczema
[4] = 5% in water-non-washable ointment with propylene glycol, topically applied on lips, subject
[5] = 10% cream (water-soluble oil-in-water emulsion with propylene glycol), itchy eczematous lesions of right leg, subject with atopic eczema

Row | SMILES | duration of the feelings of the lips (nerves of the lips; topically applied on lips) | sensual, sensational or plumping feelings of the lips (nerves of the lips; topically applied on lips) | time after application until the lips experienced the feelings (nerves of the lips; topically applied on lips) | other results
1 | CCOC(=O)CC(O)C(=O)OCC (racemic) [DL-diethyl malate, DL-Diethyl malate] | 10 to 20 min | sensual and plumping feelings | one to two | –
2 | CCOC(=O)[C@@H](O)[C@H](O)C(=O)OCC [D-diethyl tartarate, D-Diethyl tartarate] | 10 to 20 min | slight sensual and plumping feelings | one to two | –
3 | CCOC(=O)[C@H](O)[C@@H](O)C(=O)OCC [L-diethyl tartarate, L-Diethyl tartarate] | 10 to 20 min | slight sensual and plumping feelings | one to two | –
4 | CCOC(=O)[C@H](C)O [L-ethyl lactate, L-Ethyl lactate, reference compound] | – | no sensual or sensational feelings during the next 30 minutes | – | –
5 | CCOC(=O)CO [ethyl glycolate, Ethyl glycolate, reference compound] | – | no sensual or sensational feelings during the next 30 minutes | – | sensuous or mild anesthetic effect [1]: does not produce a sensuous or mild anesthetic effect
6 | CCOC(=O)C(C)O (stereo not shown) [ethyl lactate] | – | – | – | sensuous or mild anesthetic effect [1]: does not produce a sensuous or mild anesthetic effect
7 | CCN(CC)CC(=O)Nc1c(C)cccc1C [lidocaine, Lidocaine, reference compound] | – | – | – | duration of the numbing effect (nerves of the lips; [4]): several; numbing effect on the lips (nerves of the lips; [4]): the lips felt numb; time after application until the lips felt numb (nerves of the lips; [4]): a few
8 | CC(C)OC(=O)CC(O)(CC(=O)OC(C)C)C(=O)OC(C)C [tri-isopropyl citrate, Tri-isopropyl citrate] | about an hour | sensual and sensational feelings | a few | effect on itch associated with eczema or psoriasis [2]: usually disappears; time after topical application until the itch disappears [2]: a few; feelings of the lips (nerves of the lips): sensual and sensational pleasure with very mild anesthetic effects
9 | O=C(CC(O)(CC(=O)OCc1ccccc1)C(=O)OCc1ccccc1)OCc1ccccc1 [tribenzyl citrate, Tribenzyl citrate] | – | slight sensual and sensational feelings | a few | –
10 | CCOC(=O)CC(O)(CC(=O)OCC)C(=O)OCC [triethyl citrate, Triethyl citrate] | 20 to 30 min | sensual and plumping feelings | one to two | effect on itch [3]: the itch stopped; time after application until the itch stopped [3]: a few; time the skin remained free of itch [3]: 4 h; feelings of the lips (nerves of the lips): sensual and sensational pleasure with very mild anesthetic effects
11 | COC(=O)CC(O)(CC(=O)OC)C(=O)OC [trimethyl citrate, Trimethyl citrate] | – | very slight sensual and plumping feelings | one to two | –
12 | CCCOC(=O)CC(O)(CC(=O)OCCC)C(=O)OCCC [tripropyl citrate, Tripropyl citrate] | 90 to 120 min | sensual and sensational feelings | a few | sensuous and sensational effects compared with trimethyl citrate ([1]; strength and duration, compared with trimethyl citrate): much stronger and longer-lasting sensuous and sensational effects; effect on itch [2, 5]: the itch disappeared completely; time after application until the itch disappeared [2, 5]: a few; time the skin remained free of itch [2, 5]: 4 h; effect on itch associated with eczema or psoriasis [2]: usually disappears; time after topical application until the itch disappears [2]: a few; feelings of the lips (nerves of the lips): sensual and sensational pleasure with very mild anesthetic effects
